Laboratory results reported in paper PMC7587962, “Evaluation of Cytotoxicity and α-Glucosidase Inhibitory Activity of Amide and Polyamino-Derivatives of Lupane Triterpenoids” (Molecules, 2020).
Where two headings read alike, the source gives them in different places.

Columns and labels:
[1] = test system: 60 human tumor cell lines; conditions: single dose 10 µM
[2] = test system: SK-MEL-2; test: NCI-60 SRB screen: melanoma SK-MEL-2; format: cell-based, human; conditions: SK-MEL-2
[3] = test system: HCT-116; test: NCI-60 SRB screen: colon cancer HCT-116; format: cell-based; conditions: Homo sapiens, 48 h, HCT-116
[4] = test system: UACC-62; test: NCI-60 SRB screen: melanoma UACC-62; format: cell-based, human; conditions: UACC-62
[5] = test system: NCI-H522; test: NCI-60 SRB screen: non-small cell lung cancer NCI-H522; format: cell-based, human; conditions: NCI-H522
[6] = test system: HCC-2998; test: NCI-60 SRB screen: colon cancer HCC-2998; format: cell-based, human; conditions: HCC-2998
[7] = test system: SW-620; test: NCI-60 SRB screen: colon cancer SW-620; format: cell-based; conditions: Homo sapiens, 48 h, SW-620
[8] = test system: COLO 205; test: NCI-60 SRB screen: colon cancer COLO 205; format: cell-based, human; conditions: COLO 205
[9] = test system: Melanoma subpanel; test: NCI-60 screen, subpanel Melanoma
[10] = test system: HL-60(TB); test: NCI-60 SRB screen: leukemia HL-60(TB); format: cell-based; conditions: Homo sapiens, 48 h, HL-60(TB)
[11] = test system: NCI-H460; test: NCI-60 SRB screen: non-small cell lung cancer NCI-H460; format: cell-based; conditions: Homo sapiens, 48 h, NCI-H460
[12] = test system: OVCAR-3; test: NCI-60 SRB screen: ovarian cancer OVCAR-3; format: cell-based, human; conditions: OVCAR-3
[13] = test system: NSCL cancer subpanel; test: NCI-60 screen, subpanel NSCL cancer
[14] = test system: SNB-19; test: NCI-60 SRB screen: CNS cancer SNB-19; format: cell-based, human; conditions: SNB-19
[15] = test system: MDA-MB-468; test: NCI-60 SRB screen: breast cancer MDA-MB-468; format: cell-based, human
[16] = test system: MDA-MB-231/ATCC; test: NCI-60 SRB screen: breast cancer MDA-MB-231/ATCC; format: cell-based; conditions: Homo sapiens, 48 h
[17] = test system: SK-MEL-5; test: NCI-60 SRB screen: melanoma SK-MEL-5; format: cell-based, human; conditions: SK-MEL-5
[18] = test system: UO-31; test: NCI-60 SRB screen: renal cancer UO-31; format: cell-based, human; conditions: UO-31
[19] = test system: HT29; test: NCI-60 SRB screen: colon cancer HT29; format: cell-based; conditions: Homo sapiens, HT29
[20] = test system: IGROV1; test: NCI-60 SRB screen: ovarian cancer IGROV1; format: cell-based, human; conditions: IGROV1
[21] = test system: SF-539; test: NCI-60 SRB screen: CNS cancer SF-539; format: cell-based, human; conditions: SF-539
[22] = test system: SF-268; test: NCI-60 SRB screen: CNS cancer SF-268; format: cell-based, human; conditions: SF-268
[23] = test system: MDA-MB-435; test: NCI-60 SRB screen: melanoma MDA-MB-435; format: cell-based, human; conditions: MDA-MB-435
[24] = test system: KM12; test: NCI-60 SRB screen: colon cancer KM12; format: cell-based, human; conditions: KM12
[25] = test system: 60 human tumor cell lines; test: cells
[26] = test system: ACHN; test: NCI-60 SRB screen: renal cancer ACHN; format: cell-based, human
[27] = test system: HCT-15; test: NCI-60 SRB screen: colon cancer HCT-15; format: cell-based, human; conditions: HCT-15
[28] = test system: PC-3; test: NCI-60 SRB screen: prostate cancer PC-3; format: cell-based, human; conditions: PC-3
[29] = test system: Leukemia subpanel; test: NCI-60 screen, subpanel Leukemia
[30] = test system: NCI-H23; test: NCI-60 SRB screen: non-small cell lung cancer NCI-H23; format: cell-based, human; conditions: NCI-H23
[31] = test system: A549/ATCC; test: NCI-60 SRB screen: non-small cell lung cancer A549/ATCC; format: cell-based, human; conditions: A549/ATCC
[32] = test system: LOX IMVI; test: NCI-60 SRB screen: melanoma LOX IMVI; format: cell-based, human
[33] = test system: K-562; test: NCI-60 SRB screen: leukemia K-562; format: cell-based, human; conditions: K-562
[34] = test system: Renal Cancer subpanel; test: NCI-60 screen, subpanel Renal Cancer
[35] = test system: CNS cancer subpanel; test: NCI-60 screen, subpanel CNS cancer
[36] = test system: Breast cancer subpanel; test: NCI-60 screen, subpanel Breast cancer
[37] = Homo sapiens, five concentrations, 48 h, SRB, read-out: GI50
[38] = single dose 10 µM, read-out: Percentage Cell Growth
[39] = five concentrations, SRB, read-out: GI50

In the case of `C=C(C)[C@@H]1CC[C@]2(C(=O)NCCNCCNCCN)CC[C@]3(C)[C@H](CC[C@@H]4[C@@]5(C)CC[C@H](O)C(C)(C)[C@@H]5CC[C@]43C)[C@@H]12` [Compound 6], the “cancer cell lethality, range of percentage growth” value ([1]; cell lines with negative growth) is reported as −4.72% to −100%, the “cases of cancer cell lethality” value ([1]; number of cell lines) is reported as 57 and the GI50 [2, 37] is reported as 16.8 µM. The “Percentage Cell Growth” value ([2]; single dose 10 µM) was −65.39%, the activity at 10 µM [3, 38] was -26.5% and the GI50 [3, 39] was 4.4 µM. The GI50 [4, 37] was 9.29 µM, the “Percentage Cell Growth” value ([4]; single dose 10 µM) was −100.00% and the GI50 [5, 37] was 10.3 µM. For the same compound, the “Percentage Cell Growth” value ([5]; single dose 10 µM) was −57.83%, the “Percentage Cell Growth” value ([6]; single dose 10 µM) was −90.36% and the GI50 [6, 37] was 14.1 µM. For the same compound, the activity at 10 µM [7, 38] was -86.7%, the GI50 [7, 39] was 14.7 µM and the “Percentage Cell Growth” value ([8]; single dose 10 µM) was −19.47%. For the same compound, the GI50 [8, 37] was 15.9 µM, the “MID b, average sensitivity of all cell line of particular subpanel” value (“MID b, average sensitivity” below) [9] was 13.58 µM and the “Selectivity, ratio MID a: MID b” value [9] was 0.89. For the same compound, the activity at 10 µM [10, 38] was -24%, the GI50 [10, 39] was 7.33 µM and the activity at 10 µM [11, 38] was -100%. The GI50 [11, 39] was 14.7 µM, the GI50 [12, 37] was 12.2 µM and the “Percentage Cell Growth” value ([12]; single dose 10 µM) was −66.02%. The “MID b, average sensitivity” value [13] was 11.88 µM, the “Selectivity, ratio MID a: MID b” value [13] was 1.02 and the GI50 [14, 37] was 12.9 µM. For the same compound, the “Percentage Cell Growth” value ([14]; single dose 10 µM) was −74.52%, the GI50 [15, 37] was 8.88 µM and the “Percentage Cell Growth” value ([15]; single dose 10 µM) was −48.60%. It also gave an activity at 10 µM ([16]; MDA-MB-231/ATCC, single dose 10 µM, read-out: Percentage Cell Growth) of -56.9%, a GI50 ([16]; MDA-MB-231, MDA-MB-31/ATCC, five concentrations, SRB, read-out: GI50) of 15.1 µM and a GI50 [17, 37] of 11.1 µM. For the same compound, the “Percentage Cell Growth” value ([17]; single dose 10 µM) was −90.10%, the GI50 [18, 37] was 11.7 µM and the “Percentage Cell Growth” value ([18]; single dose 10 µM) was −100.00%. The activity at 10 µM ([19]; HT-29, 48 h, single dose 10 µM, read-out: Percentage Cell Growth) was -39.6%, the GI50 ([19]; HT-29, five concentrations, 48 h, SRB, read-out: GI50) was 14.6 µM and the GI50 ([20]; Homo sapiens, IGROV-1, five concentrations, 48 h, SRB, read-out: GI50) was 16.1 µM. The “Percentage Cell Growth” value ([20]; single dose 10 µM) was −81.43%, the GI50 [21, 37] was 11.1 µM and the “Percentage Cell Growth” value ([21]; single dose 10 µM) was −100.00%. For the same compound, the GI50 [22, 37] was 13.5 µM, the “Percentage Cell Growth” value ([22]; single dose 10 µM) was −30.99% and the GI50 [23, 37] was 13.4 µM. The “Percentage Cell Growth” value ([23]; single dose 10 µM) was −89.21%, the GI50 [24, 37] was 6.81 µM and the “Percentage Cell Growth” value ([24]; single dose 10 µM) was −52.23%. The GI50 ([25]; read-out: GI50 ranges against all panels of NCI60) was 2.95 to 20.1 µM, the GI50 ([25]; read-out: MID a, average sensitivity of all cell line (GI50-MID)) was 12.2 µM and the GI50 [26, 37] was 12 µM. The “Percentage Cell Growth” value ([26]; single dose 10 µM) was −100.00%, the “Percentage Cell Growth” value ([27]; single dose 10 µM) was −24.81% and the GI50 [27, 37] was 11.5 µM. For the same compound, the GI50 [28, 37] was 2.95 µM, the “Percentage Cell Growth” value ([28]; single dose 10 µM) was 1.07% and the “MID b, average sensitivity” value [29] was 6.64 µM. For the same compound, the “Selectivity, ratio MID a: MID b” value [29] was 1.83, the GI50 [30, 37] was 14.7 µM and the “Percentage Cell Growth” value ([30]; single dose 10 µM) was −51.70%. The “Percentage Cell Growth” value ([31]; single dose 10 µM) was −64.63%, the GI50 [31, 37] was 4.97 µM and the GI50 [32, 37] was 14.9 µM. For the same compound, the “Percentage Cell Growth” value ([32]; single dose 10 µM) was −41.03%, the GI50 ([33]; Homo sapiens, K562, five concentrations, 48 h, SRB, read-out: GI50) was 6.9 µM and the “Percentage Cell Growth” value ([33]; single dose 10 µM) was −15.78%. For the same compound, the “MID b, average sensitivity” value [34] was 13.02 µM, the “Selectivity, ratio MID a: MID b” value [34] was 0.93 and the “MID b, average sensitivity” value [35] was 12.52 µM. The “Selectivity, ratio MID a: MID b” value [35] was 0.97, the “MID b, average sensitivity” value [36] was 13.86 µM and the “Selectivity, ratio MID a: MID b” value [36] was 0.88.
